Data from the NIST ThermoML archive (doi:10.1016/j.jct.2012.11.014).
Numbers after ± are expanded uncertainties.

Assay: xn = mol fraction of the nth substance listed
Settings: 101 kPa, Liquid; for speed of sound: Frequency=2 MHz, Linear variable-path acoustic interferometer; for viscosity: Oscillating disk viscometry; for mass density: Vibrating tube method

C[NH+](C)C.O=P([O-])(O)O [trimethylammonium dihydrogen phosphate] + C[S+](C)[O-]
Settings	mass density, 298.15 K [kg/m3]	mass density, 303.15 K [kg/m3]	speed of sound, 298.15 K [m/s]	speed of sound, 303.15 K [m/s]	viscosity, 298.15 K [mPa·s]	viscosity, 303.15 K [mPa·s]
x1 = 0.0264	1101.75 ± 1	1099.07 ± 1	1494 ± 3	1471 ± 3	2.17 ± 0.14	1.95 ± 0.12
x1 = 0.0397	1104.69 ± 1	1102.31 ± 1	1493 ± 3	1471 ± 3	2.25 ± 0.14	2.02 ± 0.13
x1 = 0.0708	1111.45 ± 1	1109.32 ± 1	1492 ± 3	1471 ± 3	2.45 ± 0.16	2.18 ± 0.14
x1 = 0.1172	1121.12 ± 1	1119.09 ± 1	1494 ± 3	1474 ± 3	2.74 ± 0.18	2.43 ± 0.16
x1 = 0.1673	1130.48 ± 1.1	1128.56 ± 1.1	1496 ± 3	1477 ± 3	3.05 ± 0.2	2.69 ± 0.17
x1 = 0.2284	1141.05 ± 1.1	1139.84 ± 1.1	1502 ± 3	1483 ± 3	3.41 ± 0.22	2.99 ± 0.19
x1 = 0.2934	1153.02 ± 1.1	1151.1 ± 1.1	1510 ± 3	1491 ± 3	3.79 ± 0.25	3.31 ± 0.22
x1 = 0.3413	1160.74 ± 1.1	1160.68 ± 1.1	1518 ± 3	1499 ± 3	4.07 ± 0.27	3.53 ± 0.23
x1 = 0.4012	1172.7 ± 1.1	1171.28 ± 1.1	1527 ± 3	1510 ± 3	4.41 ± 0.29	3.81 ± 0.25
x1 = 0.4659	1185.32 ± 1.1	1184.46 ± 1.1	1540 ± 3	1523 ± 3	4.77 ± 0.32	4.11 ± 0.27
x1 = 0.5306	1199.2 ± 1.1	1198.94 ± 1.1	1554 ± 3	1537 ± 3	5.12 ± 0.34	4.4 ± 0.29
x1 = 0.6022	1215.92 ± 1.1	1214.84 ± 1.1	1570 ± 3	1554 ± 3	5.51 ± 0.37	4.72 ± 0.32
x1 = 0.6728	1235.08 ± 1.1	1233.24 ± 1.1	1587 ± 3	1572 ± 3	5.89 ± 0.39	5.02 ± 0.34
x1 = 0.7504	1257.14 ± 1.1	1256.51 ± 1.1	1608 ± 3	1592 ± 3	6.3 ± 0.42	5.36 ± 0.36
x1 = 0.8137	1278.01 ± 1.1	1276.03 ± 1.1	1624 ± 3	1610 ± 3	6.64 ± 0.45	5.64 ± 0.38
x1 = 0.8805	1302.18 ± 1.1	1302.06 ± 1.1	1641 ± 3	1627 ± 3	6.99 ± 0.47	5.93 ± 0.4
x1 = 0.9643	1337.27 ± 1.1	1336.07 ± 1.1	1662 ± 3	1649 ± 3	7.45 ± 0.5	6.3 ± 0.43
x1 = 0.9858	1347.05 ± 1.1	1344.82 ± 1.1	1668 ± 3	1656 ± 3	7.56 ± 0.51	6.4 ± 0.43
x1 = 1	1353.61 ± 1.1	1350.62 ± 1.1	1672 ± 3	1660 ± 3	7.64 ± 0.52	6.46 ± 0.44
